Results from patent US20040082664A1, “Derivatives of hydroxyphenyl, a method for preparing thereof and their pharmaceutical composition” (priority 2002, published 2004).

Key:
[1] = molecular target: T1, GST-fused lck SH2 domain (Homo sapiens, UniProt P06239); assay: Inhibition of in vitro binding of lck SH2 domain to its cognate pYEEI peptide (BIAcore 2000); conditions: IC50 class for inhibition of GST-lckSH2 binding to immobilized biotinylated […]pYEEIPI peptide; read-out: BOND DEGREE WITH SH2 OF 1ck
T1 construct: GST (Glutathione transferase)-fused lck SH2 domain
Description: The present inventors investigated the inhibition activity of phenyl derivatives on the interaction of GST (Glutathione transferase)-fused lck SH2 domain and a peptide […]pYEEIPI (comprising the sequence PYEEI, a cognate peptide of Lck SH2) by using a real time sensorgram (BIAcore 2000).
At first, the biotinylated peptide was fixed on the surface of BIAcore analysis apparatus and then GST-lckSH2 protein was injected over the surface of the immobilized peptides. The binding of GST-lck SH2 with the peptide is represented as the resonance units (referred as “RU” hereinafter) and 1,000 RU corresponds to a change in surface concentration of 1 ng/mm^2. The binding of GST-lck with the fixed peptide causes the change of refractory index, leading to the increase of RU. In the mean time, when the binding of GST-lck with the fixed peptide is inhibited, RU decreases. Those results are represented in Table 1.

[2] = test system: IL-2 promoter; assay: IL-2 promoter luciferase reporter assay in anti-CD3 activated Jurkat cells; format: cell-based; conditions: Homo sapiens, TCR-induced (anti-CD3) IL-2 promoter luciferase, 2 h pre-incubation
Description: In order to confirm whether the compounds of the invention can pass through a cell membrane and inhibit the expression of IL-2 gene leading to T-cell proliferation, the present inventors firstly confirmed T-cell activity by detecting the activity of the luciferase fused on the downstream of IL-2 promoter.
To investigate the activity of IL-2 promoter, Jurkat cells (1×10^6) were transfected with a IL-2 reporter plasmids using Superfect™ (Qiagen Inc.). After 24 hours of transfection, Jurkat cells were pre-incubated with compounds of various concentrations (1 uM-50 uM) for 2 hours and further cultured on 35mm plate pre-coated with 5 ug/ml of anti-CD3 antibody, resulting in T cell activation. The luciferase activity was measured using Berthold luminometer LB953. The IC50 (50% inhibition concentration) of the compounds of the invention on TCR-induced IL-2 promoter activation are shown in Table 2.

[3] = test system: skin allograft rejection; assay: Inhibition of skin allograft rejection (Balb/c tail skin grafted onto C57BL/6 mouse); format: in vivo
Description: For the experiment, allogeneic Balb/c(H-2d) mouse-tail skin was grafted onto C57BL/6(H-2b) mouse. Generally 7-8 mice were assigned to each group. All the phenyl derivatives were dissolved in 100% ethanol, mixed with olive oil, and adjusted to the final concentration of ethanol therein less than 5%. […] Meanwhile, for the group of untreated mice, an olive oil-ethanol mixture was administered as a control. The grafted skin was monitored daily after the removal of the bandage on days 7-9. Rejection was defined as more than 80% necrosis of the graft epithelium.

[4] = test system: collagen-induced rheumatoid arthritis; assay: Inhibition of collagen-induced rheumatoid arthritis in DBA1/LacJ mice; format: in vivo, mouse; set-up: key: sum of 4 leg scores (0-4 each), max 16; conditions: 50 mg/kg/day i.p. daily; day 15 after treatment (day 36 after primary immunization); sum of scores of four legs, maximum 16; mean ± standard deviation
Description: After 2 weeks, booster immunization was carried out with 50 μg C II/IFA. From the 3rd week after primary immunization, compounds of the present invention were injected daily into peritoneal cavities of 6-8 mice per group for 15-20 days.
The vehicle control groups were injected daily with 100 μl of 5% ethanol-olive oil mixture in total 15-20 times. Widely used anti-rheumatic drug, Methotrexate, was dissolved in PBS and then injected to mice at 1 mg/kg/day every other day in total 8-10 times. Meanwhile, the compounds of the invention were dissolved in ethanol and then mulsified in olive oil, in which the final ethanol concentration was adjusted to 5% and the compounds of this invention was 50 mg/kg/day.
From the 3rd week after primary immunization, the extent of edema and the joint swelling was monitored everyday to determine arthritic index. Arthitic index is the sum of the arthritic scores of all 4 legs and, therefore, maximum arthritis index of 16 can be achieved (e.g., [4 (maximum arthritic score)/leg]×[4 legs/mouse]=16 (maximum arthritis index/mouse)). […] was presented by the mean arthritis index±standard deviation of each mouse group.

[5] = 100 mg/kg/day into abdominal cavity from day of transplantation until complete rejection

T1 sequence (P06239 127-224 limits assumed): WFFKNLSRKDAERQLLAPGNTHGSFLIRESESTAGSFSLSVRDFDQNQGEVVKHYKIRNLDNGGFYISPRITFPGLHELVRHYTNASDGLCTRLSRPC

Structure (SMILES)	IC50 [1] [µM]	IC50 [2] [µM]	Survival time of skin graft tissue (days ± variance) [3, 5] [days]	Arthritis index [4]	Survival time of skin graft tissue (days ± variance) ([3]; Example (1) 50 mg/kg/day) [days]
CCCOC(=O)[C@@H](Cc1ccc(O)c(O)c1)OC(=O)/C=C/c1ccc(O)c(O)c1 [Example 55, (R)-3-(3,4-Dihydroxy-phenyl)-acrylic acid 2-(3,4-dihydroxy-phenyl)-1-propoxycarbonyl ethyl ester]	10 to 25	5.7	12.1 ± 0.8	4.8 ± 0.8	
CN(C(=O)/C=C/c1ccc(O)c(O)c1)[C@@H](Cc1ccc(O)c(O)c1)C(=O)OC(C)(C)C [Example 41, 3-(3,4-dihydroxy-phenyl)-(S)-2-{[3-trans-(3,4-dihydroxy-phenyl)-acryloyl]-methyl-amino}-propionic acid tert-butyl ester]	25 to 50	15.7	13.7 ± 0.6	6.7 ± 1.6	
CC(C)(C)OC(=O)[C@H](Cc1ccc(O)c(O)c1)NC(=O)/C=C/c1ccc(O)c(O)c1 [Example 13, 3-(3,4-dihydroxy-phenyl)-(S)-2-[3-trans-(3,4-dihydroxy-phenyl)-acryloylamino]-propionic acid tert-butyl ester]	25 to 50	7.2	14.5 ± 0.6	6.9 ± 1.1	
COC(=O)C(Cc1ccc(O)c(O)c1)NC(=O)Cc1ccc(O)c(O)c1 (stereo not drawn) [Example 50, 3-(3,4-dihydroxy-phenyl)-2-[2-(3,4-dihydroxy-phenyl)-acetylamino]-propionic acid methyl ester]	< 10	18.6	12.8 ± 0.9	4.8 ± 1.1	
CCCOC(=O)[C@H](Cc1ccc(O)c(O)c1)NC(=O)/C=C/c1ccc(O)c(O)c1 [Example 11, 3-(3,4-dihydroxy-phenyl)-(S)-2-[3-trans-(3,4-dihydroxy-phenyl)-acryloylamino]-propionic acid propyl ester]	10 to 25	4.9	14.4 ± 0.9	6.1 ± 1.3	
NC(=O)[C@H](Cc1ccc(O)c(O)c1)NC(=O)/C=C/c1ccc(O)c(O)c1 [Example 14]	10 to 25	6.9	15.3 ± 0.9	5.3 ± 1.2	
O=C(/C=C/c1ccc(O)c(O)c1)NCCc1ccc(O)c(O)c1 [Example 43, 3-(3,4-dihydroxy-phenyl)-N-[2-trans-(3,4-dihydroxy-phenyl)-ethyl]-acrylamide]	25 to 50	21.2	13.1 ± 0.9	6.0 ± 1.9	
O=C(/C=C/c1ccc(O)c(O)c1)N[C@H](Cc1ccc(O)c(O)c1)C(=O)O [Example 2, 3-(3,4-dihydroxy-phenyl)-(R)-2-[3-trans-(3,4-dihydroxy-phenyl)-acryloylamino]-propionic acid]	< 10	15	14.8 ± 0.5	7.2 ± 1.5	
O=C(/C=C/c1ccc(O)c(O)c1)N[C@H](Cc1ccc(O)cc1)C(=O)O [Example 46, (R)-2-[trans-3-(3,4-dihydroxy-phenyl)-acryloylamino]-3-(4-hydroxy-phenyl)-propionic acid]	25 to 50	19	11.9 ± 0.9	6.1 ± 0.7	
O=C(/C=C/c1ccc(O)c(O)c1)N[C@@H](Cc1ccc(O)c(O)c1)C(=O)O [Example 9, 3-(3,4-dihydroxy-phenyl)-(S)-2-[3-trans-(3,4-dihydroxy-phenyl)-acryloylamino]-propionic acid]	25 to 50	18.2	14.8 ± 0.9	7.2 ± 1.2	
NC(=O)[C@@H](Cc1ccc(O)c(O)c1)OC(=O)/C=C/c1ccc(O)c(O)c1 [Example 57, (R)-3-(3,4-Dihydroxy-phenyl)-acrylic acid 2-(3,4-dihydroxy-phenyl)-1-carbamoyl ethyl ester]	25 to 50	5.2	13.1 ± 0.7	4.5 ± 1.2	
O=C(/C=C/c1ccc(O)c(O)c1)N[C@@H](Cc1ccc(O)cc1)C(=O)O [Example 48, (S)-2-[trans-3-(3,4-dihydroxy-phenyl)-acryloylamino]-3-(4-hydroxy-phenyl)-propionic acid]	25 to 50	22.3	12 ± 1.6	7.1 ± 0.4	
COC(=O)[C@@H](Cc1ccc(O)c(O)c1)NC(=O)/C=C/c1ccc(O)c(O)c1 [Example 1, 3-(3,4-dihydroxy-phenyl)-(R)-2-[3-trans-(3,4-dihydroxy-phenyl)-acryloylamino]-propionic acid methyl ester]	< 10	1.2	15.1 ± 1.5	4.3 ± 1.5	11.2 ± 0.5
COC(=O)[C@@H](Cc1ccc(O)c(O)c1)OC(=O)/C=C/c1ccc(O)c(O)c1 [Example 54, (R)-3-(3,4-dihydroxy-phenyl)-acrylic acid 2-(3,4-dihydroxy-phenyl)-1-methoxycarbonyl ethyl ester]	10 to 25	4.5	13 ± 0.9	3.5 ± 1.1	
CC(C)OC(=O)[C@H](Cc1ccc(O)c(O)c1)NC(=O)/C=C/c1ccc(O)c(O)c1 [Example 12, 3-(3,4-dihydroxy-phenyl)-(S)-2-[3-trans-(3,4-dihydroxy-phenyl)-acryloylamino]-propionic acid isopropyl ester]	10 to 25	9.5	15.7 ± 0.8	5.1 ± 0.7	
CN(CCc1ccc(O)c(O)c1)C(=O)/C=C/c1ccc(O)c(O)c1 [Example 44, 3-(3,4-dihydroxy-phenyl)-N-[2-(3,4-dihydroxy-phenyl)-ethyl]-N-methyl-acrylamide]	25 to 50	17.4	12.5 ± 0.9	6.8 ± 1.0	
COC(=O)[C@H](Cc1ccc(O)cc1)NC(=O)/C=C/c1ccc(O)c(O)c1 [Example 47, (S)-2-[trans-3-(3,4-dihydroxy-phenyl)-acryloylamino]-3-(4-hydroxy-phenyl)-propionic acid methyl ester]	25 to 50	21	11.7 ± 1.0	6.9 ± 1.1	
